Results from ChEMBL document CHEMBL4507320, “Data for DCP probe NVS-MALT1” (2021).

Columns and labels:
[1] = target: Serine/threonine-protein kinase SIK1 (Homo sapiens) (UniProt P57059); settings: Compound concentration 1000.0 nM
[2] = target: Macrophage-stimulating protein receptor (Homo sapiens) (UniProt Q04912); settings: Compound concentration 1000.0 nM
[3] = target: Serine/threonine-protein kinase D2 (Homo sapiens) (UniProt Q9BZL6); settings: Compound concentration 1000.0 nM
[4] = target: Tyrosine-protein kinase JAK2 (Homo sapiens) (UniProt O60674); settings: Compound concentration 1000.0 nM
[5] = system: Epidermal growth factor receptor (Homo sapiens), P00533 [UNDEFINED MUTATION]; settings: Compound concentration 1000.0 nM
[6] = target: Serine/threonine-protein kinase MAK (Homo sapiens) (UniProt P20794); settings: Compound concentration 1000.0 nM
[7] = target: Calcium/calmodulin-dependent protein kinase type II subunit delta (Homo sapiens) (UniProt Q13557); settings: Compound concentration 1000.0 nM
[8] = target: Cyclin-dependent kinase 11A (Homo sapiens) (UniProt Q9UQ88); settings: Compound concentration 1000.0 nM
[9] = target: Proto-oncogene tyrosine-protein kinase ROS (Homo sapiens) (UniProt P08922); settings: Compound concentration 1000.0 nM
[10] = target: Fibroblast growth factor receptor 4 (Homo sapiens) (UniProt P22455); settings: Compound concentration 1000.0 nM
[11] = target: Cyclin-dependent kinase 9 (Homo sapiens) (UniProt P50750); settings: Compound concentration 1000.0 nM
[12] = system: Leucine-rich repeat serine/threonine-protein kinase 2 (Homo sapiens), Q5S007 [G2019S]; settings: Compound concentration 1000.0 nM
[13] = target: Mitogen-activated protein kinase kinase kinase kinase 1 (Homo sapiens) (UniProt Q92918); settings: Compound concentration 1000.0 nM
[14] = target: D(3) dopamine receptor (Homo sapiens) (UniProt P35462); settings: Compound concentration 10.0 uM
[15] = system: Phosphatidylinositol 4,5-bisphosphate 3-kinase catalytic subunit alpha isoform (Homo sapiens), P42336 [H1047L]; settings: Compound concentration 1000.0 nM
[16] = target: Ephrin type-B receptor 2 (Homo sapiens) (UniProt P29323); settings: Compound concentration 1000.0 nM
[17] = target: 5-hydroxytryptamine receptor 3A (Homo sapiens) (UniProt P46098); settings: Compound concentration 10.0 uM
[18] = target: Proto-oncogene tyrosine-protein kinase receptor Ret (Homo sapiens) (UniProt P07949); settings: Compound concentration 1000.0 nM
[19] = target: Mitogen-activated protein kinase 13 (Homo sapiens) (UniProt O15264); settings: Compound concentration 1000.0 nM
[20] = target: MAP/microtubule affinity-regulating kinase 4 (Homo sapiens) (UniProt Q96L34); settings: Compound concentration 1000.0 nM
[21] = target: Tyrosine-protein kinase CSK (Homo sapiens) (UniProt P41240); settings: Compound concentration 1000.0 nM
[22] = target: Ephrin type-B receptor 4 (Homo sapiens) (UniProt P54760); settings: Compound concentration 1000.0 nM
[23] = target: Tyrosine-protein kinase FRK (Homo sapiens) (UniProt P42685); settings: Compound concentration 1000.0 nM
[24] = target: Cyclin-G-associated kinase (Homo sapiens) (UniProt O14976); settings: Compound concentration 1000.0 nM
[25] = target: Aurora kinase C (Homo sapiens) (UniProt Q9UQB9); settings: Compound concentration 1000.0 nM
[26] = system: Tyrosine-protein kinase ABL1 (Homo sapiens), P00519 [H396P]; settings: Compound concentration 1000.0 nM
[27] = system: Tyrosine-protein kinase ABL1 (Homo sapiens), P00519 [E255K]; settings: Compound concentration 1000.0 nM
[28] = target: Serine/threonine-protein kinase 4 (Homo sapiens) (UniProt Q13043); settings: Compound concentration 1000.0 nM
[29] = target: Phosphatidylinositol 4,5-bisphosphate 3-kinase catalytic subunit alpha isoform (Homo sapiens) (UniProt P42336); settings: Compound concentration 1000.0 nM
[30] = target: Cyclin-dependent kinase 15 (Homo sapiens) (UniProt Q96Q40); settings: Compound concentration 1000.0 nM
[31] = target: Beta-adrenergic receptor kinase 1 (Homo sapiens) (UniProt P25098); settings: Compound concentration 1000.0 nM
[32] = target: Inhibitor of nuclear factor kappa-B kinase subunit alpha (Homo sapiens) (UniProt O15111); settings: Compound concentration 1000.0 nM
[33] = target: Cyclin-dependent kinase-like 5 (Homo sapiens) (UniProt O76039); settings: Compound concentration 1000.0 nM
[34] = target: Mitogen-activated protein kinase kinase kinase 7 (Homo sapiens) (UniProt O43318); settings: Compound concentration 1000.0 nM
[35] = target: Alpha-1A adrenergic receptor (Homo sapiens) (UniProt P35348); settings: Compound concentration 10.0 uM
[36] = target: Serine/threonine-protein kinase SIK2 (Homo sapiens) (UniProt Q9H0K1); settings: Compound concentration 1000.0 nM
[37] = system: Phosphatidylinositol 4,5-bisphosphate 3-kinase catalytic subunit alpha isoform (Homo sapiens), P42336 [C420R]; settings: Compound concentration 1000.0 nM
[38] = target: Serine/threonine-protein kinase LATS1 (Homo sapiens) (UniProt O95835); settings: Compound concentration 1000.0 nM
[39] = system: ALK tyrosine kinase receptor (Homo sapiens), Q9UM73 [L1196M]; settings: Compound concentration 1000.0 nM
[40] = target: Mitotic checkpoint serine/threonine-protein kinase BUB1 (Homo sapiens) (UniProt O43683); settings: Compound concentration 1000.0 nM
[41] = target: Serine/threonine-protein kinase 3 (Homo sapiens) (UniProt Q13188); settings: Compound concentration 1000.0 nM
[42] = target: Eukaryotic translation initiation factor 2-alpha kinase 1 (Homo sapiens) (UniProt Q9BQI3); settings: Compound concentration 1000.0 nM
[43] = target: Serine/threonine-protein kinase PLK3 (Homo sapiens) (UniProt Q9H4B4); settings: Compound concentration 1000.0 nM
[44] = target: Mitogen-activated protein kinase kinase kinase kinase 5 (Homo sapiens) (UniProt Q9Y4K4); settings: Compound concentration 1000.0 nM
[45] = target: Ribosomal protein S6 kinase beta-1 (Homo sapiens) (UniProt P23443); settings: Compound concentration 1000.0 nM

Sequence of Fibroblast growth factor receptor 4 (Homo sapiens) (P22455 22-802 limits assumed): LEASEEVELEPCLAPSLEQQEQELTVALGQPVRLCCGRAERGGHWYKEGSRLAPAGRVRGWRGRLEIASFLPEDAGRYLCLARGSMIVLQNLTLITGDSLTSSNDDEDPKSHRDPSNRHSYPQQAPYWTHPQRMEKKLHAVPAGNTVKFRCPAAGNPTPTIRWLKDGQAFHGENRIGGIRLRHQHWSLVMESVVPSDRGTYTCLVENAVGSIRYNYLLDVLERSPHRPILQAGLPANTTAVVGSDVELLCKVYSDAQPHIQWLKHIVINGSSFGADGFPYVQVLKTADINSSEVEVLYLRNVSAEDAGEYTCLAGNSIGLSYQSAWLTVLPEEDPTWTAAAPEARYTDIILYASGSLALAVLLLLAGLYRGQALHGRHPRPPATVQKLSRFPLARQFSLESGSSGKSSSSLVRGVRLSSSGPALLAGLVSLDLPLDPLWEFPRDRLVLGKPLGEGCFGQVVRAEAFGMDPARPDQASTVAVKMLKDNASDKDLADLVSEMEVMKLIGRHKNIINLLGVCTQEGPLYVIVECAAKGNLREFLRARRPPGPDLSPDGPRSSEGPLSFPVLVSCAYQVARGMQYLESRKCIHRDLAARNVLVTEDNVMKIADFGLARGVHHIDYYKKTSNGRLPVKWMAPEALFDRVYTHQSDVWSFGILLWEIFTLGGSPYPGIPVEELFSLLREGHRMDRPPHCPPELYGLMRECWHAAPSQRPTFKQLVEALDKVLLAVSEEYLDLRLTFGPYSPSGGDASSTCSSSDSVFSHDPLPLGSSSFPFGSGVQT
Sequence of Mitogen-activated protein kinase kinase kinase kinase 1 (Homo sapiens) (Q92918 whole entry, looked up): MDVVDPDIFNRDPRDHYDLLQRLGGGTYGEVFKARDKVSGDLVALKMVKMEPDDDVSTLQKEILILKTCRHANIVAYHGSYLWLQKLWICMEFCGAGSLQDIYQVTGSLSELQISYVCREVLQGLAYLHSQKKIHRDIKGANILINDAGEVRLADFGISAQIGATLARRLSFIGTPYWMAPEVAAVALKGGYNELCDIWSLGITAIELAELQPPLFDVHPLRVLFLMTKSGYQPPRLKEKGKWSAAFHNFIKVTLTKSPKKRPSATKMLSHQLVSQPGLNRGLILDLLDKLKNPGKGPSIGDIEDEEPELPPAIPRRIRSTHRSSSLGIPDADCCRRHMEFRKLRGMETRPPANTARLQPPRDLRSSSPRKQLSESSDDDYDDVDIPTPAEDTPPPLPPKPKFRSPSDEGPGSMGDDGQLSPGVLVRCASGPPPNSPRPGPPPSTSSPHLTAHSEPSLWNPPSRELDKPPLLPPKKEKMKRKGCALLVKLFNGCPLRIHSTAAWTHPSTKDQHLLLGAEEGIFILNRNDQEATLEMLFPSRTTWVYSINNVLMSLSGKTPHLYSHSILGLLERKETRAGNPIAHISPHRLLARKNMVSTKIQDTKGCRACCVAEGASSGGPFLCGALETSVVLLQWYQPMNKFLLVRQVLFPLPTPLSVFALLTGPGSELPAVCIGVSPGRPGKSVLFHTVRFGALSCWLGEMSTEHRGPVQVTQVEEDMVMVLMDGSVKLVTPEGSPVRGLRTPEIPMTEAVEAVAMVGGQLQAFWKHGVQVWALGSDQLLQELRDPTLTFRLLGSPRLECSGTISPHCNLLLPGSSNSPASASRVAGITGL
Sequence of Cyclin-dependent kinase 15 (Homo sapiens) (Q96Q40 whole entry): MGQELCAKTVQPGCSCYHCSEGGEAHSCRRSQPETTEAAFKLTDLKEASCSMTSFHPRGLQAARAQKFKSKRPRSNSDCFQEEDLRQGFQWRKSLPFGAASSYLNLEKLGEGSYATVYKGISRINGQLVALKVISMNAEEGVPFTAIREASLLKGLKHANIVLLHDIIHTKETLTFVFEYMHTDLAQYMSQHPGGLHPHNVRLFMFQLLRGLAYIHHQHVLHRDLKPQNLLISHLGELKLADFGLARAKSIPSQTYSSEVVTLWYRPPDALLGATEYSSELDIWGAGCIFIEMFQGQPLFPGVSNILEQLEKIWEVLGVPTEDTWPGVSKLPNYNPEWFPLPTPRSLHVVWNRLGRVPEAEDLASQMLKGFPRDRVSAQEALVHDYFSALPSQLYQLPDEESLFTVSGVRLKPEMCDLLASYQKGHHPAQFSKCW
Sequence of 5-hydroxytryptamine receptor 3A (Homo sapiens) (P46098 whole entry): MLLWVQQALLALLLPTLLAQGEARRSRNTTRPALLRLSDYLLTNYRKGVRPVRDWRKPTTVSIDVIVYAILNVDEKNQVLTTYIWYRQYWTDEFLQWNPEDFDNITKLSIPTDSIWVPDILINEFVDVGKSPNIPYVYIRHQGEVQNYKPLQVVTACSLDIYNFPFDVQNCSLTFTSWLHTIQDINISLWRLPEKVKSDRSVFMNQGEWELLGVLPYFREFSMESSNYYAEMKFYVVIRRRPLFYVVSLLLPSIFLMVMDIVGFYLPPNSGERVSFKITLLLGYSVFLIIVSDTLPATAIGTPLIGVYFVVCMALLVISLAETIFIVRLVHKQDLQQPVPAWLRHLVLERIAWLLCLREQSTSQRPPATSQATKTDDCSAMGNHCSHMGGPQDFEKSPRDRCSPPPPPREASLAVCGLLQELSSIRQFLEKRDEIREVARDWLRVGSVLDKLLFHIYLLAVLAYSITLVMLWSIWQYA
Sequence of Eukaryotic translation initiation factor 2-alpha kinase 1 (Homo sapiens) (Q9BQI3 whole entry): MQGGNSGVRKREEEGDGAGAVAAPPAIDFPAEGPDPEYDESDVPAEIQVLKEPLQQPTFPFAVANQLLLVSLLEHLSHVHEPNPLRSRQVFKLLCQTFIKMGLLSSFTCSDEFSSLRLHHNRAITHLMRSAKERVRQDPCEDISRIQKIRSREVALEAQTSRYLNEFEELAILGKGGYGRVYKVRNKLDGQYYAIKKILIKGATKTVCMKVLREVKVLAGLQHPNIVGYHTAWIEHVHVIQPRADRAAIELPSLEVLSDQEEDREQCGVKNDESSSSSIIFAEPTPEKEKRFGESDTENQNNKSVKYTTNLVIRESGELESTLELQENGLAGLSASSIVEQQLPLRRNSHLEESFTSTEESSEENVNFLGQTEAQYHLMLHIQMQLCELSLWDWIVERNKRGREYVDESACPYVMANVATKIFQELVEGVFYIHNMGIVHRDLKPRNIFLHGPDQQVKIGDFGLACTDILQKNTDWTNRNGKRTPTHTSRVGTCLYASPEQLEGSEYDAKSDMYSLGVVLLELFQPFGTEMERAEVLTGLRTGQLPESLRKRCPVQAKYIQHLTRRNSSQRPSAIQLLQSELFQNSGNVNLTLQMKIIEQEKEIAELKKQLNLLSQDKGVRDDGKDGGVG
Sequence of Cyclin-G-associated kinase (Homo sapiens) (O14976 whole entry): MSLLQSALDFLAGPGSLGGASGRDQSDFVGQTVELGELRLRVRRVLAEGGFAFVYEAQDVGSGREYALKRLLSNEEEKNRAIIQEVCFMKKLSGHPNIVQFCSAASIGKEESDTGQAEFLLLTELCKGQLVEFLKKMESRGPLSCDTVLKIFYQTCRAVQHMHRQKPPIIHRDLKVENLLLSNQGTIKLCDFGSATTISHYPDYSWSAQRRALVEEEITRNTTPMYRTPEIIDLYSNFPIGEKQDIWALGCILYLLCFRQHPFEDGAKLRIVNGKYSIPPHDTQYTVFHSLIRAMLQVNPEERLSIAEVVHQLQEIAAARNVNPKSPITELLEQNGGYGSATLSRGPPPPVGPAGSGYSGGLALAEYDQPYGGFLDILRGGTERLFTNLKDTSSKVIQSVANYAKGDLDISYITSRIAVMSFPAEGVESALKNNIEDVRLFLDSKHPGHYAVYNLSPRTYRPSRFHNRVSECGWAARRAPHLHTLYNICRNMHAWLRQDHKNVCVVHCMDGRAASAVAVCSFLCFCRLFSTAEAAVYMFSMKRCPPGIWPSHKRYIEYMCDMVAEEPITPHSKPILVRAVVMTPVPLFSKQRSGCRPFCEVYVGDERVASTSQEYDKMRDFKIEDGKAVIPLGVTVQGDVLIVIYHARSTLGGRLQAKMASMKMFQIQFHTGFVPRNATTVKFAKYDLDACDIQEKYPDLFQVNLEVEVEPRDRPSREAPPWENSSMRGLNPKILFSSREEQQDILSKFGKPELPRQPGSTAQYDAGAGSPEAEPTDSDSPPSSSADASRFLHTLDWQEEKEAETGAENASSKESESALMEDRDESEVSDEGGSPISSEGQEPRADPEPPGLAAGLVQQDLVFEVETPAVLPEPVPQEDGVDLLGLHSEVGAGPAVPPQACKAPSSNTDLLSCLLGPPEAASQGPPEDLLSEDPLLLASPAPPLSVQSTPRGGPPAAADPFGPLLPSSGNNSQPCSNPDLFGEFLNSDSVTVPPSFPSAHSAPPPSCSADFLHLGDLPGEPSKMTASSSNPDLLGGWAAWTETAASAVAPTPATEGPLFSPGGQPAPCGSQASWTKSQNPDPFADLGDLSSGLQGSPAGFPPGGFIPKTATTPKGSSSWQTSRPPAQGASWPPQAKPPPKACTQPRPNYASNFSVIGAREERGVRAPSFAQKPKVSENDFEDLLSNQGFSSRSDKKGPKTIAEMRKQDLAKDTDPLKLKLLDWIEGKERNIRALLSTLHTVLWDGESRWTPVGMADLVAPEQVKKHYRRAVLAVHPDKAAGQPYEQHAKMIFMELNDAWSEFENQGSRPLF
Sequence of Cyclin-dependent kinase 9 (Homo sapiens) (P50750 whole entry): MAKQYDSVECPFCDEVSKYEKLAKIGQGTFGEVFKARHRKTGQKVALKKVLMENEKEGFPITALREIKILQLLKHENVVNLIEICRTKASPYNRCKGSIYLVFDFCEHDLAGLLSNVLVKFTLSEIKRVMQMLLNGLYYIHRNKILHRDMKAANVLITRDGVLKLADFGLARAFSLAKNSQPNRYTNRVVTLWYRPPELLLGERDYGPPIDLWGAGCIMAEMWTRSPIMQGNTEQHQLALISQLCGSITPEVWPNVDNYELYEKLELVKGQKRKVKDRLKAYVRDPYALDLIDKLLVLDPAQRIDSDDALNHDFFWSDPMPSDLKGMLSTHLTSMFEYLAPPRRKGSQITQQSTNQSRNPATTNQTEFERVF

CO[C@@H](C)c1c(Nc2ccc([C@H](N(C)C(=O)C3CCS(=O)(=O)CC3)C(F)(F)F)cc2)cnc2cc(Cl)nn12 [NVS-MALT1]
inactive: residual activity [1] 87% | residual activity [2] 100% | residual activity [3] 83% | residual activity [4] 100% | residual activity [5] 100% | residual activity [6] 100% | residual activity [7] 86% | residual activity [8] 93% | residual activity [9] 77% | residual activity [10] 85% | residual activity [11] 85% | residual activity [12] 100% | residual activity [13] 100% | inhibition [14] -4.43% | residual activity [15] 92% | residual activity [16] 76% | inhibition [17] -6.2% | residual activity [18] 91% | residual activity [19] 100% | residual activity [20] 76% | residual activity [21] 100% | residual activity [22] 100% | residual activity [23] 80% | residual activity [24] 98% | residual activity [25] 77% | residual activity [26] 100% | residual activity [27] 76% | residual activity [28] 100% | residual activity [29] 94% | residual activity [30] 74% | residual activity [31] 84% | residual activity [32] 100% | residual activity [33] 95% | residual activity [34] 89% | inhibition [35] -7.59% | residual activity [36] 87% | residual activity [37] 93% | residual activity [38] 88% | residual activity [39] 100% | residual activity [40] 100% | residual activity [41] 92% | residual activity [42] 100% | residual activity [43] 86% | residual activity [44] 88% | residual activity [45] 100%

CO[C@@H](C)c1c(Nc2ccc([C@@H](N(C)C(=O)C3CCS(=O)(=O)CC3)C(F)(F)F)cc2)cnc2cc(Cl)nn12 [NVS-MALT1-C]
inactive: residual activity [1] 85% | residual activity [2] 100% | residual activity [3] 86% | residual activity [4] 98% | residual activity [5] 93% | residual activity [6] 100% | residual activity [7] 100% | residual activity [8] 100% | residual activity [9] 82% | residual activity [10] 92% | residual activity [11] 100% | residual activity [12] 100% | residual activity [13] 100% | inhibition [14] -5.92% | residual activity [15] 98% | residual activity [16] 92% | inhibition [17] -1.2% | residual activity [18] 91% | residual activity [19] 100% | residual activity [20] 89% | residual activity [21] 100% | residual activity [22] 100% | residual activity [23] 91% | residual activity [24] 93% | residual activity [25] 85% | residual activity [26] 98% | residual activity [27] 75% | residual activity [28] 100% | residual activity [29] 92% | residual activity [30] 94% | residual activity [31] 92% | residual activity [32] 100% | residual activity [33] 89% | residual activity [34] 84% | inhibition [35] -3.44% | residual activity [36] 92% | residual activity [37] 93% | residual activity [38] 98% | residual activity [39] 94% | residual activity [40] 100% | residual activity [41] 100% | residual activity [42] 100% | residual activity [43] 84% | residual activity [44] 100% | residual activity [45] 90%
